Assay [1] concerns PPT CGNPs expressing vismodegib-resistant SMO mutants. Nature of the assay: PPT CGNP proliferation, methyl-[3H]-thymidine incorporation. The assay is classed as cell-based, mouse. To be noted: for proliferation in the presence of SMO inhibitor: 500 nM of compound, SMO-mutant expressing cells. Background: Dividing cells build labelled thymidine or BrdU into new DNA.
The test system of assay [2] is PPT CGNPs infected with SMO-WT and Cre. The assay is described as above. The assay is classed as cell-based, mouse. The following applies: for proliferation in the presence of SMO inhibitor: 500 nM of compound.
Assay [3] deals with SMO-N219D (Homo sapiens, UniProt Q99835, N219D). Nature of the assay: Gli-luciferase based Hh reporter assay. The assay is classed as cell-based. To be noted: 1 μM vismodegib, C3H10T½ cells. On the technique in general: A reporter such as luciferase makes a cellular process visible.
In assay [4] the target is SMO-D384N (Homo sapiens, UniProt Q99835, D384N). Nature of the assay: Gli-luciferase based Hh reporter assay. The assay is classed as cell-based. To be noted: 1 μM vismodegib, C3H10T½ cells.
The target of assay [5] is SMO-S387N (Homo sapiens, UniProt Q99835, S387N). Nature of the assay: Gli-luciferase based Hh reporter assay. The assay is classed as cell-based. To be noted: 1 μM vismodegib, C3H10T½ cells.
Assay [6] concerns the target SMO-I408V (Homo sapiens, UniProt Q99835, I408V). Nature of the assay: [3H]-vismodegib binding to transfected HEK-293 cells. The following applies: compared with SMO-WT at similar cell surface levels.
The test system of assay [7] is activating SMO mutants. Described as above. To be noted: all activating mutants tested, cell surface expression comparable to SMO-WT.
The test system of assay [8] is PPT CGNPs infected with SMO DBP mutants. Nature of the assay: PPT CGNP proliferation, methyl-[3H]-thymidine incorporation. The assay is classed as cell-based, mouse. To be noted: high levels of vismodegib (>1 μM).
The subject of assay [9] is PPT CGNPs infected with SMO-C469Y. The assay is described as above. The assay is classed as cell-based, mouse. The following applies: 5 μM vismodegib.
For assay [10], the system named is SMO-T241M expressing CGNPs. The assay is described as above. The assay is classed as cell-based, mouse. The following applies: vismodegib dose response after removal of SHH ligand.
In assay [11] the test system is SMO-A459V expressing CGNPs. Described as above. The assay is classed as cell-based, mouse. The following applies: vismodegib dose response after removal of SHH ligand.
For assay [12], the system named is SMO-W535L expressing CGNPs. Described as above. The assay is classed as cell-based, mouse. The following applies: vismodegib dose response after removal of SHH ligand.
In assay [13] the test system is SMO-D473H. To be noted: mutation from relapsed metastatic MB; ref Yauch et al., 2009; cited from earlier work.
Assay [14] has as its system advanced BCC patients. To be noted: ref Chang and Oro, 2012; cited from earlier work.

Structures are written as SMILES.

Sequence of SMO-S387N (Q99835 28-787 S387N): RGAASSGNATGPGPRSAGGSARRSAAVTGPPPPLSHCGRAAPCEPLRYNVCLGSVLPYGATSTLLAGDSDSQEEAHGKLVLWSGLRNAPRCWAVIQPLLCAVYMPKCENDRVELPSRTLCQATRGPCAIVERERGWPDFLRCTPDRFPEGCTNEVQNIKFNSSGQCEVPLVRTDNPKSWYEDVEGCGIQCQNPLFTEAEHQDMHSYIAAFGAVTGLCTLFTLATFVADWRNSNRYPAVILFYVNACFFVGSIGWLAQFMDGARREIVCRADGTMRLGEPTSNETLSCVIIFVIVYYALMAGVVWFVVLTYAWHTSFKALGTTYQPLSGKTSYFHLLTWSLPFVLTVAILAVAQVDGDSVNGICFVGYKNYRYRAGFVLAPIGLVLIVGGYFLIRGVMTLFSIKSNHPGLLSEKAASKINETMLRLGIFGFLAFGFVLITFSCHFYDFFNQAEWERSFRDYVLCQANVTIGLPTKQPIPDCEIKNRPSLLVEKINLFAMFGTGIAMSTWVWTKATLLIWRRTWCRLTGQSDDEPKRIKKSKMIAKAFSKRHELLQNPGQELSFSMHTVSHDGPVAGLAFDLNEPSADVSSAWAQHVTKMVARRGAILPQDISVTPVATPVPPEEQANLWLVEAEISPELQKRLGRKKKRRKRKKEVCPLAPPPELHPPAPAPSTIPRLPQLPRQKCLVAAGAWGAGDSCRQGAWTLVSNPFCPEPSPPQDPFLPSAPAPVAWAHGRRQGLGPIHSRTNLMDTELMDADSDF
Sequence of SMO-I408V (Q99835 28-787 I408V): as the sequence (Q99835 28-787 S387N) above, with N360S, I381V counted along it
Sequence of SMO-D384N (Q99835 28-787 D384N): as the sequence (Q99835 28-787 S387N) above, with D357N, N360S counted along it
Sequence of SMO-N219D (Q99835 28-787 N219D): as the sequence (Q99835 28-787 S387N) above, with N192D, N360S counted along it

Take `Cc1sc2c(c1C)C(c1ccc(Cl)cc1)=N[C@@H](CC(=O)OC(C)(C)C)c1nnc(C)n1-2` [JQ1]: in assay [1] (1 μM JQ1), the “proliferation in the presence of bromodomain inhibitor” value is listed as “reduced proliferation”.

Turning to `Cc1c(C(=O)Nc2ccc(N3C[C@@H](C)O[C@@H](C)C3)nc2)cccc1-c1ccc(OC(F)(F)F)cc1` [LDE225, sonidegib], the “proliferation in the presence of SMO inhibitor” value in assay [2] is on record as “similarly inhibited the proliferation”; in assay [1] it was “continued to proliferate, albeit to differing extents”.

As to `CN(C(=O)c1ccc(F)cc1C(F)(F)F)C1CCN(c2nnc(-c3ccnn3C)c3ccccc23)CC1` [LY2940680], the “proliferation in the presence of SMO inhibitor” value in assay [2] is recorded as “similarly inhibited the proliferation”; in assay [1], “continued to proliferate, albeit to differing extents”.

`CS(=O)(=O)c1ccc(C(=O)Nc2ccc(Cl)c(-c3ccccn3)c2)c(Cl)c1` [vismodegib]: the “sensitivity to vismodegib compared to SMO-WT” value in assay [3], in assay [4] and in [5] was “reduced sensitivity” each time. In addition, in assay [6], the “[3H]-vismodegib binding” value is recorded as “impaired vismodegib binding”. Moreover, in assay [7], the vismodegib binding result is listed as “impaired vismodegib binding”. In addition, in assay [2] (Mus musculus, read-out: IC50, proliferation), the IC50 is approximately 22 nM. For the same molecule, the “concentration at which proliferation was maximally inhibited” value in assay [2] (after removal of SHH ligand) is 100 nM. The “proliferation in the presence of vismodegib” value in assay [8] is “continuing to proliferate at high levels of vismodegib”; in assay [9] it was “continued to proliferate at near untreated levels”; in assay [10] it was “continued to proliferate at high concentrations of vismodegib”; in [11], “continued to proliferate at high concentrations of vismodegib”; in assay [12], “continued to proliferate at high concentrations of vismodegib”. In addition, in assay [13], the “drug binding in vitro” value was “abrogate drug binding”. In addition, in assay [14], the “estimated incidence of secondary, or acquired, resistance in BCC” value is recorded as ~ 20 % per year.

Source of the values: article PMC5675004 (Cancer cell, 2015).
